Experimental data published in patent US4560662A, “Streptomyces antibioticus ATCC 31771 and process for obtaining same” (priority 1981, dated 1985).
≈ marks a conversion by molar mass, not a printed value.

Experiments:
[1] = system: Proteus vulgaris ATCC 6380; test: Bacteriostatic power in solid medium (MIC), aerobic Gram negative; format: cell-based
[2] = system: Haemophilus influenzae ATCC 19418; test: as above; format: cell-based
From the text: (§1) Turning now to an examination of the novel macrolide antibiotics produced according to the present invention, they are all characterized by a bacteriostatic spectrum like that of erythromycin and by the stability in acidic environment, whereby their direct administration by oral route is possible, without having recourse to esters and/or salts, showing the afore mentioned disadvantages and problems. The above is confirmed by the following Table 1, wherein the MIC values are reported, indicating the bacteriostatic power, and by the Table 2, giving the stability values in acidic environment. Without having to be construed in a limiting sense, it seems plausible that the greater stability of the macrolide. antibiotics of the present invention can be attributed to the presence in the molecule of the antibiotic of the neutral sugar oleandrose (J. Antib. (1976) XXIX (7), 728).
(§2) Bacteriostatic power in solid medium of Erythromycin A, Erythromycin B,
(§3) aerobic and anaerobic bacteria, Gram positive and Gram negative minimum
(§4) inhibiting concentrations expressed in mcg/ml.

Shigella sonnei LRP 5 = test: as above; format: cell-based
From the text: as §1, §2, §3, §4

[3] = system: Pseudomonas aeruginosa LRP 9; test: as above; format: cell-based
From the text: as §1, §2, §3, §4

[4] = system: Staphylococcus aureus ATCC 6538 P; test: Bacteriostatic power in solid medium (MIC), aerobic Gram positive; format: cell-based
Bacillus subtilis LRP 25 = test: as above; format: cell-based
[5] = system: Bacteroides fragilis ATCC 23745; test: Bacteriostatic power in solid medium (MIC), anaerobic; format: cell-based
[6] = system: Acholeplasma laidlawii ATCC 23206; test: Bacteriostatic power in solid medium (MIC), aerobic Gram negative; format: cell-based
[7] = system: Streptococcus pneumonieae LRP 52; test: Bacteriostatic power in solid medium (MIC), aerobic Gram positive; format: cell-based
[8] = system: Clostridium perfrigens ATCC 3624; test: Bacteriostatic power in solid medium (MIC), anaerobic; format: cell-based
[9] = system: Neisseria Gonorrhoeae ATCC 19424; test: Bacteriostatic power in solid medium (MIC), aerobic Gram negative; format: cell-based
[10] = system: Streptococcus faecalis LRP 7; test: Bacteriostatic power in solid medium (MIC), aerobic Gram positive; format: cell-based
Escherichia coli LRP 50 = test: Bacteriostatic power in solid medium (MIC), aerobic Gram negative; format: cell-based; details: solid medium, LRP 50
[11] = system: Streptococcus pyogenes ATCC 8668; test: Bacteriostatic power in solid medium (MIC), aerobic Gram positive; format: cell-based
[12] = system: Klebsiella pneumoniae LRP 54; test: Bacteriostatic power in solid medium (MIC), aerobic Gram negative; format: cell-based
[13] = system: Streptococcus pyogenes LRP 197; test: Bacteriostatic power in solid medium (MIC), aerobic Gram positive; format: cell-based
[14] = system: Streptococcus pneumonieae ATCC 6303; test: as above; format: cell-based
[15] = system: Mycoplasma hominis I ATCC 14097; test: Bacteriostatic power in solid medium (MIC), aerobic Gram negative; format: cell-based
[16] = system: Fusobacterium necrophorum ATCC 27852; test: Bacteriostatic power in solid medium (MIC), anaerobic; format: cell-based
[17] = system: Streptococcus faecalis sub. zymogenes ATCC 12958; test: Bacteriostatic power in solid medium (MIC), aerobic Gram positive; format: cell-based
[18] = system: Staphylococcus aureus ATCC 14154; test: as above; format: cell-based
From the text: as §1, §2, §3, §4

[19] = system: Micrococcus luteus ATCC 15957; test: as above; format: cell-based
From the text: as §1, §2, §3, §4

[20] = system: Streptococcus pneumonieae LRP 53; test: as above; format: cell-based
[21] = system: Micrococcus luteus ATCC 9341; test: as above; format: cell-based
[22] = system: Corynebacterium diphteriae LRP 24; test: as above; format: cell-based
physchem = format: physicochemical; details: for half-life: acidic environment
From the text: t 1/2 represents the half life time of the antibiotics as determined by
high pressure liquid phase chromatography (HPLC).

[23] = system: Staphylococcus aureus LRP 14; test: Bacteriostatic power in solid medium (MIC), aerobic Gram positive; format: cell-based
Salmonella typhi LRP 8 = test: Bacteriostatic power in solid medium (MIC), aerobic Gram negative; format: cell-based

Molecule “3-O-oleandrosyl-5-O-desosaminyl-(8S)-8,19-epoxyerythronolide B [P 15153]” has a minimum inhibiting concentration ([1]; solid medium, LRP 13) of over 25 µg/mL, a minimum inhibiting concentration ([2]; LRP 213) of 12.5 µg/mL and a minimum inhibiting concentration (Shigella sonnei LRP 5) of over 25 µg/mL. It also gave a minimum inhibiting concentration [3] of over 25 µg/mL, a minimum inhibiting concentration ([4]; solid medium, LRP 39) of 0.195 µg/mL and a minimum inhibiting concentration (Bacillus subtilis LRP 25; solid medium, LRP 25) of 0.195 µg/mL. The minimum inhibiting concentration ([5]; solid medium, LRP 205, anaerobic) was 6.25 µg/mL, the minimum inhibiting concentration ([6]; solid medium, LRP 204) was 1.56 µg/mL and the minimum inhibiting concentration ([7]; solid medium, LRP 52) was 0.049 µg/mL. It also gave a minimum inhibiting concentration ([8]; LRP 206) of 3.12 µg/mL, a minimum inhibiting concentration ([9]; solid medium, LRP 214) of 0.195 µg/mL and a minimum inhibiting concentration ([10]; solid medium, LRP 7) of 0.78 µg/mL. The minimum inhibiting concentration (Escherichia coli LRP 50) was 25 µg/mL, the minimum inhibiting concentration ([11]; solid medium, LRP 34) was 0.049 µg/mL and the minimum inhibiting concentration ([12]; solid medium, LRP 54) was over 25 µg/mL. The minimum inhibiting concentration ([13]; solid medium, LRP 197) was 0.049 µg/mL, the minimum inhibiting concentration ([14]; solid medium, LRP 35) was 0.049 µg/mL and the minimum inhibiting concentration ([15]; solid medium, LRP 211) was over 25 µg/mL. It also gave a minimum inhibiting concentration ([16]; solid medium, LRP 210, anaerobic) of 25 µg/mL, a minimum inhibiting concentration ([17]; solid medium, LRP 61) of 0.39 µg/mL and a minimum inhibiting concentration ([18]; LRP 78, Erythromicina resistant) of over 25 µg/mL. For the same molecule, the minimum inhibiting concentration ([19]; LRP 193, Erythromicina resistant) was over 25 µg/mL, the minimum inhibiting concentration ([20]; solid medium, LRP 53) was 0.024 µg/mL and the minimum inhibiting concentration ([21]; solid medium, LRP 6) was 0.024 µg/mL. The minimum inhibiting concentration ([22]; solid medium, LRP 24) was 0.024 µg/mL, the “t 1/2” value (physchem; pH 2.0, 25° C.) was 65 h and the minimum inhibiting concentration ([23]; solid medium, LRP 14, Penycilline resistant) was 0.195 µg/mL. The minimum inhibiting concentration (Salmonella typhi LRP 8; solid medium, LRP 8) was 25 µg/mL.

Work on `CC[C@H]1OC(=O)[C@H](C)[C@@H](O[C@H]2C[C@@](C)(OC)[C@@H](O)[C@H](C)O2)[C@H](C)[C@@H](O[C@@H]2O[C@H](C)C[C@H](N(C)C)[C@H]2O)[C@](C)(O)C[C@@H](C)C(=O)[C@H](C)[C@@H](O)[C@]1(C)O` [Erythromycin A, reference compound] yielded an MIC ([1]; Proteus vulgaris, ATCC6380, read-out: minimum inhibiting concentration) of over 25 µg/mL, an MIC ([2]; Haemophilus influenzae, ATCC19418, LRP 213, read-out: minimum inhibiting concentration) of 3.12 µg/mL (≈ 4.25 µM) and an MIC (Shigella sonnei LRP 5; Shigella sonnei, LRP5, read-out: minimum inhibiting concentration) of 12.5 µg/mL (≈ 17 µM). The MIC ([3]; Pseudomonas aeruginosa, LRP9, read-out: minimum inhibiting concentration) was over 25 µg/mL, the MIC ([4]; Staphylococcus aureus, ATCC6538, read-out: minimum inhibiting concentration) was 0.049 µg/mL (≈ 0.0668 µM) and the MIC (Bacillus subtilis LRP 25; Bacillus subtilis, LRP25, read-out: minimum inhibiting concentration) was 0.049 µg/mL (≈ 0.0668 µM). It also gave an MIC ([5]; Bacteroides fragilis, ATCC23745, read-out: minimum inhibiting concentration) of 0.195 µg/mL (≈ 0.266 µM), an MIC ([6]; Acholeplasma laidlawii, ATCC23206, read-out: minimum inhibiting concentration) of 0.097 µg/mL (≈ 0.132 µM) and an MIC ([7]; Streptococcus, LRP52, read-out: minimum inhibiting concentration) of 0.012 µg/mL (≈ 0.0164 µM). The MIC ([8]; Clostridium, ATCC3624, LRP 206, read-out: minimum inhibiting concentration) was 1.56 µg/mL (≈ 2.13 µM), the MIC ([9]; Neisseria gonorrhoeae, ATCC19424, read-out: minimum inhibiting concentration) was 0.049 µg/mL (≈ 0.0668 µM) and the MIC ([10]; Enterococcus faecalis, LRP7, read-out: minimum inhibiting concentration) was 0.097 µg/mL (≈ 0.132 µM). For the same molecule, the MIC (Escherichia coli LRP 50; Escherichia coli, LRP50, read-out: minimum inhibiting concentration) was 6.25 µg/mL (≈ 8.52 µM), the MIC ([11]; Streptococcus pyogenes, ATCC8668, read-out: minimum inhibiting concentration) was 0.012 µg/mL (≈ 0.0164 µM) and the MIC ([12]; Klebsiella pneumoniae, LRP54, read-out: minimum inhibiting concentration) was 25 µg/mL (≈ 34.1 µM). The MIC ([13]; Streptococcus pyogenes, LRP197, read-out: minimum inhibiting concentration) was 0.012 µg/mL (≈ 0.0164 µM), the MIC ([14]; Streptococcus, ATCC6303, read-out: minimum inhibiting concentration) was 0.012 µg/mL (≈ 0.0164 µM) and the MIC ([15]; Metamycoplasma hominis, ATCC14097, read-out: minimum inhibiting concentration) was over 25 µg/mL. The MIC ([16]; Fusobacterium necrophorum, ATCC27852, read-out: minimum inhibiting concentration) was 1.56 µg/mL (≈ 2.13 µM), the MIC ([17]; Enterococcus faecalis, ATCC12958, read-out: minimum inhibiting concentration) was 0.195 µg/mL (≈ 0.266 µM) and the MIC ([18]; Staphylococcus aureus, ATCC14154, LRP 78, Erythromicina resistant, read-out: minimum inhibiting concentration) was over 25 µg/mL. It also gave an MIC ([19]; Micrococcus luteus, ATCC15957, LRP 193, Erythromicina resistant, read-out: minimum inhibiting concentration) of over 25 µg/mL, an MIC ([20]; Streptococcus, LRP53, read-out: minimum inhibiting concentration) of 0.012 µg/mL (≈ 0.0164 µM) and an MIC ([21]; Micrococcus luteus, ATCC9341, read-out: minimum inhibiting concentration) of 0.006 µg/mL (≈ 0.00818 µM). It also gave an MIC ([22]; Corynebacterium, LRP24, read-out: minimum inhibiting concentration) of 0.006 µg/mL (≈ 0.00818 µM), a half-life (physchem; pH 2) of 2 min and a half-life (physchem; pH 3) of 6 min. For the same molecule, the MIC ([23]; Staphylococcus aureus, LRP14, read-out: minimum inhibiting concentration) was 0.049 µg/mL (≈ 0.0668 µM) and the MIC (Salmonella typhi LRP 8; Salmonella enterica, TYPHI, read-out: minimum inhibiting concentration) was 12.5 µg/mL (≈ 17 µM).
